Reference: patent US20090305225A1, “Inhibition of Creatine Uptake to Promote Weight Loss” (priority 2005, published 2009)

Tests used:
[1] = test system: 11G2L (creatine transporter mRNA); assay: Northern blot of 11G2L in hypothalamic RNA; assay type: in vivo, rat
Procedure: Northern Blots were used to confirm the results we obtained from the differential display. Six additional rats from each group (saline, CoPP, and fasted) were used in Northern Blot experiments. Total RNA (15 ug) extracted from the hypothalami of these rats was loaded on 1.3% formaldehyde-agarose gels. After 3.5 hours running at 56V, the gels were transferred to Hybrond-N+ membrane (Amersham, Piscataway, N.J.). The cloning inserts were released from PCR-TRAP Vectors by PCR amplification and then gel-purified with the Wizard®DNA Clean-up System (Promega). The inserts were labeled with [alpha^32P]dCTP (Perkin Elmer) using a random primers DNA labeling kit (Invitrogen, San Diego, Calif.). Labeled probe (25 ng) was denatured and then hybridized with a membrane which had been pre-incubated for 15 min in 15 ml Rapidhyb buffer (Amersham) in a Roller-Blot Hybridizer (Techne HB-3D, Cambridge, UK) for 1 hour. After washing under different stringencies, depending on the probes used, the membranes were exposed overnight to film. The autoradiographs were scanned using a GS-700 imaging densitometer (BioRad, Inc., Hercules, Calif.) and analyzed using Quantity One software (BioRad). A series of primer sets were designed using available sequences for inserts or for related mRNA cds.

[2] = test system: creatine transporter mRNA; assay: In situ hybridization of creatine transporter mRNA in rat brain; assay type: in vivo; conditions: 48 hours after icv 0.4 um/kg; arcuate, dorsomedial, ventromedial, third ventricle, paraventricular thalamic, habenular areas; FIG. 6
Text: At least 3 rats per group were used for each individual probe. Brains were dissected as described above and were cut vertically to remove the anterior portion at the optic chiasm and the posterior portion at the interpeduncular fossa so that the remaining blocks included the whole hypothalamus with a small additional margin of adjacent tissue. The blocks were immediately frozen on foil on dry ice, then stored at −80 degrees C. Blocks were sectioned in a cryostat (Micron HM500O) at −20 degrees C. and at a thickness of 13 microns. The slides were fixed in 4% paraformaldehyde for 5 minutes and acetylated in 1.3% triethanolamine and 0.5% acetic anhydride, pH 8.0 for 5 minutes. […] After air drying, the slides were ready to use.
For preparation of radiolabeled riboprobes, the DNA fragments containing the creatine transporter insert and a T7 or SP6 phage promoter sequence in each side were produced from cloning vectors (pCRII-TOPO, Invitrogene; PCR-TRAP, GenHunter) either by restriction endonuclease digestion or by PCR amplification. […] The cpm value was determined by counting in a liquid scintillation spectrometer. […]
For dipping and developing in situ slides, Kodak NTB-2 emulsion was diluted (1:1) using ddH2O and warmed to 40 degrees C. in a dark room. […] Slides were observed under dark-field microscopy (Olympus, Tokyo, Japan) and silver grains in regions of interest were assessed. […]

[3] = Body weight after icv CoPP in rats; assay type: in vivo, rat; conditions: 48 hours after icv injection, 6 animals per group
Procedure: All animal handling was approved by and done in accordance with the guidelines and requirements of the University of Vermont Institutional Animal Care Use Committee. Adult male Sprague-Dawley rats (mycoplasma free; 200 g) were purchased from Charles River (Quebec, Canada) and housed in an air-conditioned (23+1° C.) room with lights on for 12 hours daily (starting at 6:00 a.m.) in the University of Vermont Animal Facility. Rats were housed singly in regular cages with free access to Purina Rat Chow (RMH 3000) and water for at least five days prior to surgery. Stereotactic surgery was used to implant chronic indwelling stainless steel cannulae into the third ventricle of the brain under fentanyl/droperidol anesthesia. Coordinates for cannula placement were obtained from the Konig Klippel stereotactic surgery atlas; with the nose bar 2.4 mm below the intraaural line and the vertical micrometer gantry tilted 9 degrees towards the animal, the coordinates were 4.9 mm dorsal to the intraaural line, 5 mm anterior to the intraaural line and 1.1 mm lateral to the midline. A minimum of 5 days later, animals were injected icv with CoPP (which was dissolved in 0.2 N NaOH and the pH adjusted to 7.4-7.8) or other experimental compounds. […] Because of the repetitive dosing regimens, animals were trained for six days prior to the first injection to ready them for injections without anesthesia. […]

C=Cc1c(C)c2cc3[nH]c(cc4nc(cc5nc(cc1[nH]2)C(C)=C5CCC(=O)[O-])C(CCC(=O)[O-])=C4C)c(C)c3C=C.[Co+2] [CoPP, Cobaltic protoporphyrin IX]
increase of 11G2L expression compared to vehicle-treated animals (fed or fasted) ([1]; Northern densitometry normalized to L32, p<0.02): approximately 20% | Northern Blot Densitometry of 11G2L ([1]; hypothalamus, 48 hours after icv, normalized to L32 mRNA): 1.023±* arbitrary units | CrT mRNA in situ hybridization compared to control [2]: increased | Δ Weight [3]: −29%
